From publication PMC6254336, “Structural and functional characterization of IdiA/FutA (Tery_3377), an iron-binding protein from the ocean diazotroph Trichodesmium erythraeum” (The Journal of Biological Chemistry, 2018)

Target: T1, Tery_3377 (IdiA/FutA) (Trichodesmium erythraeum, UniProt Q10Z45)
T1 construct: mature protein, predicted signal peptide (residues 1-31) removed, C-terminal His6 tag, pET21a(+), E. coli BL21(DE3); two monomers per asymmetric unit
Experiment: X-ray crystal structure, […] Å
Conditions: two citrates bound in the substrate-binding cleft together with one Fe3+ that they coordinate, about 7 Å from the empty iron site; protein citrate-treated before crystallisation; carboxylic acids mix

T1 sequence (Q10Z45 entry or part of it): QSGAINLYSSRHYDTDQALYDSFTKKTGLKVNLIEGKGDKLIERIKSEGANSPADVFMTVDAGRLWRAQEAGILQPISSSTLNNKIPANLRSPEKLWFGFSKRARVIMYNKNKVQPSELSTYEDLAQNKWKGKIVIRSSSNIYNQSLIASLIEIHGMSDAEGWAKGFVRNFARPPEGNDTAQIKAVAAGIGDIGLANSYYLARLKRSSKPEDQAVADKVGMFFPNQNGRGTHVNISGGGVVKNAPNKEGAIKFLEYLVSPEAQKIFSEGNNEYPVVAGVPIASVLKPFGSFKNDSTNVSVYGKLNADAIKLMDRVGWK

Q: Which “X-ray crystal structure, 1.2 Å” value does the source give for `O=C(O)CC(O)(CC(=O)O)C(=O)O` [citrate] here?
A: The value was “traps the citrate molecule with bound iron in the substrate-binding cleft”.
